Measured values published in ChEMBL document CHEMBL3414561, “Discovery of 4'-chloromethyl-2'-deoxy-3',5'-di-O-isobutyryl-2'-fluorocytidine (ALS-8176), a first-in-class RSV polymerase inhibitor for treatment of human respiratory syncytial virus infection” (J Med Chem, 2015).

Columns and labels:
[1] = test system: Respiratory syncytial virus; test: Antiviral activity against Respiratory syncytial virus subgenomic replicon system in 395 HeLa cells assessed as reduction in viral replication after 7 days by renilla luciferase assay; type: functional, organism-based; details: human respiratory syncytial virus, 168 h
[2] = Cytotoxicity against human HeLa cells assessed as cell viability by CellTiter-Glo luminescent assay; type: cell-based
[3] = test system: A549; test: Drug metabolism in human A549 cells assessed as nucleotide 5'-triphosphate level measured per million cells at 50 uM after 1 to 5 days by LC/MS/MS analysis; type: ADME, cell-based; details: a549, 50 µM
[4] = Drug metabolism in human Hep2 cells assessed as nucleotide 5'-triphosphate level measured per million cells at 50 uM after 1 to 5 days by LC/MS/MS analysis; type: ADME, cell-based; details: hep-2, 50 µM
[5] = Drug metabolism in human normal bronchial epithelial cells assessed as nucleotide 5'-triphosphate level measured per million cells at 50 uM after 1 to 5 days by LC/MS/MS analysis; type: ADME, cell-based; details: epithelial cell
[6] = Drug metabolism in human nasal cells assessed as nucleotide 5'-triphosphate level measured per million cells at 50 uM after 1 to 5 days by LC/MS/MS analysis; type: ADME, cell-based
[7] = Half life in male syrian golden hamster at 5 mg/kg, iv; type: ADME, organism-based, Mesocricetus auratus; parameters: dose 5 mg/kg, route intravenous; details: in vivo
[8] = Clearance in male syrian golden hamster at 5 mg/kg, iv; type: ADME, organism-based, Mesocricetus auratus; parameters: dose 5 mg/kg, route intravenous; details: in vivo
[9] = Volume of distribution at steady state in male syrian golden hamster at 5 mg/kg, iv; type: ADME, organism-based, Mesocricetus auratus; parameters: dose 5 mg/kg, route intravenous; details: in vivo, read-out: Vdss
[10] = AUCinf in male syrian golden hamster at 5 mg/kg, iv; type: ADME, organism-based, Mesocricetus auratus; parameters: time infinity, dose 5 mg/kg, route intravenous; details: plasma
[11] = test system: Syrian golden hamster; test: Ratio of uridine metabolite to parent cytidine in male syrian golden hamster at 5 mg/kg, iv; type: ADME, organism-based, Mesocricetus auratus; parameters: dose 5 mg/kg, route intravenous; details: in vivo
[12] = Drug uptake in male syrian golden hamster assessed as lung NMP level at 5 mg/kg, iv after 1 hr; type: ADME, organism-based, Mesocricetus auratus; parameters: dose 5 mg/kg, route intravenous; details: in vivo, read-out: Drug uptake
[13] = Drug uptake in male syrian golden hamster assessed as lung NTP level at 5 mg/kg, iv after 1 hr; type: ADME, organism-based, Mesocricetus auratus; parameters: dose 5 mg/kg, route intravenous; details: in vivo, read-out: Drug uptake
[14] = Half life in Sprague-Dawley rat at 5 mg/kg, iv; type: ADME, organism-based; parameters: dose 5 mg/kg, route intravenous; details: in vivo
[15] = Clearance in Sprague-Dawley rat at 5 mg/kg, iv; type: ADME, organism-based; parameters: dose 5 mg/kg, route intravenous; details: in vivo
[16] = Volume of distribution at steady state in Sprague-Dawley rat at 5 mg/kg, iv; type: ADME, organism-based; parameters: dose 5 mg/kg, route intravenous; details: in vivo, read-out: Vdss
[17] = AUCinf in Sprague-Dawley rat at 5 mg/kg, iv; type: ADME, organism-based; parameters: time infinity, dose 5 mg/kg, route intravenous; details: plasma
[18] = Half life in Non-naive cynomolgus monkey at 5 mg/kg, iv; type: ADME, organism-based, Macaca fascicularis; parameters: dose 5 mg/kg, route intravenous; details: in vivo
[19] = Clearance in Non-naive cynomolgus monkey at 5 mg/kg, iv; type: ADME, organism-based, Macaca fascicularis; parameters: dose 5 mg/kg, route intravenous; details: in vivo
[20] = Volume of distribution at steady state in Non-naive cynomolgus monkey at 5 mg/kg, iv; type: ADME, organism-based, Macaca fascicularis; parameters: dose 5 mg/kg, route intravenous; details: in vivo, read-out: Vdss
[21] = AUCinf in Non-naive cynomolgus monkey at 5 mg/kg, iv; type: ADME, organism-based, Macaca fascicularis; parameters: time infinity, dose 5 mg/kg, route intravenous; details: plasma
[22] = test system: Cynomolgus monkey; test: Ratio of uridine metabolite to parent cytidine in Non-naive cynomolgus monkey at 5 mg/kg, iv; type: ADME, organism-based, Macaca fascicularis; parameters: dose 5 mg/kg, route intravenous; details: in vivo
[23] = Drug uptake in Non-naive cynomolgus monkey assessed as lung NMP level at 5 mg/kg, iv after 1 hr; type: ADME, organism-based, Macaca fascicularis; parameters: dose 5 mg/kg, route intravenous; details: in vivo, read-out: Drug uptake
[24] = Drug uptake in Non-naive cynomolgus monkey assessed as lung NTP level at 5 mg/kg, iv after 1 hr; type: ADME, organism-based, Macaca fascicularis; parameters: dose 5 mg/kg, route intravenous; details: in vivo, read-out: Drug uptake
[25] = Drug uptake in Non-naive cynomolgus monkey assessed as lung NMP level at 5 mg/kg, po 4'-chloromethyl-2'-deoxy-2'-fluorocytidine equivalent dose after 12 hrs; type: ADME, organism-based, Macaca fascicularis; parameters: dose 5 mg/kg, route oral; details: in vivo, read-out: Drug uptake
[26] = Drug uptake in Non-naive cynomolgus monkey assessed as lung NTP level at 5 mg/kg, po 4'-chloromethyl-2'-deoxy-2'-fluorocytidine equivalent dose after 12 hrs; type: ADME, organism-based, Macaca fascicularis; parameters: dose 5 mg/kg, route oral; details: in vivo, read-out: Drug uptake
[27] = test system: Respiratory syncytial virus; test: Inhibition of Respiratory syncytial virus RNA polymerase in crude RSV RNP complex assessed as inhibition of [33P]CMP incorporation into RNA chain at 30 uM
[28] = test system: Respiratory syncytial virus; test: Inhibition of Respiratory syncytial virus RNA polymerase in crude RSV RNP complex assessed as inhibition of [33P]CMP incorporation into RNA chain at 10 uM

| SMILES | EC50 [1] | CC50 [2] | Drug metabolism [3] | Drug metabolism [4] | Drug metabolism [5] | Drug metabolism [6] | half-life [7] | clearance [8] | Vd [9] | AUC(0-inf) [10] | Ratio [11] | concentration [12] | concentration [13] | half-life [14] | clearance [15] | Vd [16] | AUC(0-inf) [17] | half-life [18] | concentration [25] | concentration [26] | further results |
| --- | --- | --- | --- | --- | --- | --- | --- | --- | --- | --- | --- | --- | --- | --- | --- | --- | --- | --- | --- | --- | --- |
| CC[C@]1(CO)O[C@@H](n2ccc(N)nc2=O)[C@H](F)[C@@H]1O | 420 nM | > 100000 nM | 85.1 pmol | 119 pmol | 489 pmol | 140 pmol | 1.23 h | 34.1 mL/min/kg | 1.07 L/kg | 2460 ng·h/mL | 0.0005 | 144 nM | 42.2 nM | 1.34 h | 25.5 mL/min/kg | 1.67 L/kg | 3140 ng·h/mL | 7.52 h |  |  | clearance [19]: 19.2 mL/min/kg; Vd [20]: 1.8 L/kg; AUC(0-inf) [21]: 4360 ng·h/mL; Ratio [22]: 0.67; concentration [23]: 3310 nM; concentration [24]: 3070 nM |
| CC(C)C(=O)OC[C@@]1(CCl)O[C@@H](n2ccc(N)nc2=O)[C@H](F)[C@@H]1OC(=O)C(C)C [LUMICITABINE] | 260 nM | > 100000 nM |  |  |  |  |  |  |  |  |  |  |  |  |  |  |  |  | 679 nM | 1480 nM |  |
| Nc1ccn([C@@H]2O[C@@](CO)(CCl)[C@@H](O)[C@H]2F)c(=O)n1 [ALS-8112] | 150 nM | > 100000 nM | 137 pmol | 94.7 pmol | 581 pmol | 185 pmol | 3.98 h | 28.6 mL/min/kg | 2.3 L/kg | 3230 ng·h/mL | 0.025 | 287 nM | 70.9 nM | 6.01 h | 31.8 mL/min/kg | 4.1 L/kg | 2670 ng·h/mL | 5.44 h | 254 nM | 185 nM | clearance [19]: 28 mL/min/kg; Vd [20]: 3 L/kg; AUC(0-inf) [21]: 2980 ng·h/mL; Ratio [22]: 0.48; concentration [23]: 9920 nM; concentration [24]: 4060 nM |
| CC(C)[C@H](N)C(=O)O[C@H]1[C@@H](F)[C@H](n2ccc(N)nc2=O)O[C@@]1(CO)CCl | 60 nM | > 100000 nM |  |  |  |  |  |  |  |  |  |  |  |  |  |  |  |  | 861 nM | 915 nM |  |
| Nc1ccn([C@@H]2O[C@](CCl)(COP(=O)(O)OP(=O)(O)OP(=O)(O)O)[C@@H](O)[C@@H]2O)c(=O)n1 |  |  |  |  |  |  |  |  |  |  |  |  |  |  |  |  |  |  |  |  | inhibition [27]: 6% |
| Nc1ccn([C@@H]2O[C@](CCl)(COP(=O)(O)OP(=O)(O)OP(=O)(O)O)[C@@H](O)C2(F)F)c(=O)n1 |  |  |  |  |  |  |  |  |  |  |  |  |  |  |  |  |  |  |  |  | inhibition [28]: 38% |
